# From PubChem BioAssay AID1259407 (Chemical Carcinogenesis Research Information System (CCRIS), 2018)
# Activity calls are given as the source filed them. How the calls were made is not given here.
# Test system: CCRIS mutagenicity, Ames/micronucleus/aberration tests
# Experiment: CCRIS mutagenicity studies
# [1] = Test System: AMES SALMONELLA TYPHIMURIUM, Strain/Indicator: TA97, Metabolic Activation: NONE, Method: PREINCUBATION
# [2] = Test System: AMES SALMONELLA TYPHIMURIUM, Strain/Indicator: TA97, Metabolic Activation: RAT, LIVER, S-9, AROCLOR 1254, Method: PREINCUBATION
# [3] = Test System: AMES SALMONELLA TYPHIMURIUM, Strain/Indicator: TA102, Metabolic Activation: NONE, Method: PREINCUBATION
# [4] = Test System: AMES SALMONELLA TYPHIMURIUM, Strain/Indicator: TA102, Metabolic Activation: RAT, LIVER, S-9, AROCLOR 1254, Method: PREINCUBATION
# [5] = Test System: AMES SALMONELLA TYPHIMURIUM, Strain/Indicator: TA98, Metabolic Activation: NONE, Method: STANDARD PLATE
# [6] = Test System: AMES SALMONELLA TYPHIMURIUM, Strain/Indicator: TA100, Metabolic Activation: NONE, Method: STANDARD PLATE
structure (smiles),measurement,setting,value
CC(=O)c1ccccc1,mutagenic call,[1],inactive; negative
same,mutagenic call,[2],inactive; negative
same,mutagenic call,"Test System: AMES SALMONELLA TYPHIMURIUM, Strain/Indicator: TA98, Metabolic Activation: NONE, Method: PREINCUBATION",inactive; negative
same,mutagenic call,"Test System: AMES SALMONELLA TYPHIMURIUM, Strain/Indicator: TA98, Metabolic Activation: RAT LIVER S-9, PHENOBARBITAL AND BETA-NAPHTHOFLAVONE, Method: PREINCUBATION",inactive; negative
same,mutagenic call,"Test System: AMES SALMONELLA TYPHIMURIUM, Strain/Indicator: TA100, Metabolic Activation: NONE, Method: PREINCUBATION",inactive; negative
same,mutagenic call,"Test System: AMES SALMONELLA TYPHIMURIUM, Strain/Indicator: TA100, Metabolic Activation: RAT LIVER S-9, PHENOBARBITAL AND BETA-NAPHTHOFLAVONE, Method: PREINCUBATION",inactive; negative
same,mutagenic call,[3],inactive; negative
same,mutagenic call,[4],inactive; negative
same,mutagenic call,"Test System: AMES SALMONELLA TYPHIMURIUM, Strain/Indicator: TA1535, Metabolic Activation: NONE, Method: PREINCUBATION",inactive; negative
same,mutagenic call,"Test System: AMES SALMONELLA TYPHIMURIUM, Strain/Indicator: TA1535, Metabolic Activation: RAT LIVER S-9, PHENOBARBITAL AND BETA-NAPHTHOFLAVONE, Method: PREINCUBATION",inactive; negative
same,mutagenic call,"Test System: AMES SALMONELLA TYPHIMURIUM, Strain/Indicator: TA1537, Metabolic Activation: NONE, Method: PREINCUBATION",inactive; negative
same,mutagenic call,"Test System: AMES SALMONELLA TYPHIMURIUM, Strain/Indicator: TA1537, Metabolic Activation: RAT LIVER S-9, PHENOBARBITAL AND BETA-NAPHTHOFLAVONE, Method: PREINCUBATION",inactive; negative
same,mutagenic call,"Test System: E.COLI, Strain/Indicator: WP2UVRA/PKM101, Metabolic Activation: NONE, Method: PREINCUBATION",inactive; negative
same,mutagenic call,"Test System: E.COLI, Strain/Indicator: WP2UVRA/PKM101, Metabolic Activation: RAT LIVER S-9, PHENOBARBITAL AND BETA-NAPHTHOFLAVONE, Method: PREINCUBATION",inactive; negative
CCCCCCCCCCCCCc1ccccc1,mutagenic call,[5],inactive; negative
same,mutagenic call,"Test System: AMES SALMONELLA TYPHIMURIUM, Strain/Indicator: TA98, Metabolic Activation: RAT, LIVER, S-9, AROCLOR 1254 (10%), Method: STANDARD PLATE",inactive; negative
same,mutagenic call,[6],inactive; negative
same,mutagenic call,"Test System: AMES SALMONELLA TYPHIMURIUM, Strain/Indicator: TA100, Metabolic Activation: RAT, LIVER, S-9, AROCLOR 1254 (10%), Method: STANDARD PLATE",inactive; negative
same,mutagenic call,"Test System: AMES SALMONELLA TYPHIMURIUM, Strain/Indicator: TA1535, Metabolic Activation: NONE, Method: STANDARD PLATE",inactive; negative
same,mutagenic call,"Test System: AMES SALMONELLA TYPHIMURIUM, Strain/Indicator: TA1535, Metabolic Activation: RAT, LIVER, S-9, AROCLOR 1254 (10%), Method: STANDARD PLATE",inactive; negative
same,mutagenic call,"Test System: AMES SALMONELLA TYPHIMURIUM, Strain/Indicator: TA1537, Metabolic Activation: NONE, Method: STANDARD PLATE",inactive; negative
same,mutagenic call,"Test System: AMES SALMONELLA TYPHIMURIUM, Strain/Indicator: TA1537, Metabolic Activation: RAT, LIVER, S-9, AROCLOR 1254 (10%), Method: STANDARD PLATE",inactive; negative
same,mutagenic call,"Test System: CHINESE HAMSTER OVARY, Strain/Indicator: CHO (HGPRT), Metabolic Activation: NONE",inactive; negative
same,mutagenic call,"Test System: CHINESE HAMSTER OVARY, Strain/Indicator: CHO (HGPRT), Metabolic Activation: RAT, LIVER, S-9, AROCLOR 1254 (1%)",inactive; negative
CC(C)(Br)C(Br)CCl (stereo unspecified),mutagenic call,"Test System: AMES SALMONELLA TYPHIMURIUM, Strain/Indicator: TA100, Metabolic Activation: RAT, LIVER, MICROSOMES, PHENOBARBITAL, Method: PREINCUBATION",inactive; negative
same,mutagenic call,"Test System: AMES SALMONELLA TYPHIMURIUM, Strain/Indicator: TA100, Metabolic Activation: RAT, LIVER, MICROSOMES, Method: PREINCUBATION",inactive; negative
CCOP(=S)(OCC)Oc1ccc(S(C)=O)cc1 (stereo unspecified),mutagenic call,"End Point: In vivo micronucleus, Species: Mouse, Strain/Sex: NMRI/Male and female",inactive; negative
CC(=O)O[C@H]1[C@@H]2CC(C)(C)CC2=C(C=O)[C@]2(C=O)C[C@]12C,mutagenic call,[5],inactive; negative
same,mutagenic call,[6],inactive; negative
same,mutagenic call,"Test System: AMES SALMONELLA TYPHIMURIUM, Strain/Indicator: TA2637, Metabolic Activation: NONE, Method: STANDARD PLATE",inactive; negative
Cc1ccc2ccc3cc4ccccc4cc3c2c1,mutagenic call,"Test System: AMES SALMONELLA TYPHIMURIUM, Strain/Indicator: TA100, Metabolic Activation: RAT, INTACT HEPATOCYTES, AROCLOR 1254, Method: PREINCUBATION",inactive; negative
same,mutagenic call,"Test System: AMES SALMONELLA TYPHIMURIUM, Strain/Indicator: TA100, Metabolic Activation: RAT, NADPH-FORTIFIED HOMOGENIZED HEPATOCYTES, AROCLOR 1254, Method: PREINCUBATION",active; positive
same,mutagenic call,"Test System: AMES SALMONELLA TYPHIMURIUM, Strain/Indicator: TA100, Metabolic Activation: RAT, SONICATED HEPATOCYTES, AROCLOR 1254, Method: PREINCUBATION",active; positive
CC(C)(CO)[C@@H](O)C(=O)NCCC(=O)O,mutagenic call,[1],inactive; negative
same,mutagenic call,[2],inactive; negative
same,mutagenic call,"Test System: AMES SALMONELLA TYPHIMURIUM, Strain/Indicator: TA97A, Metabolic Activation: NONE, Method: PREINCUBATION",inactive; negative
same,mutagenic call,"Test System: AMES SALMONELLA TYPHIMURIUM, Strain/Indicator: TA97A, Metabolic Activation: RAT, LIVER, S-9, AROCLOR 1254, Method: PREINCUBATION",inactive; negative
same,mutagenic call,[3],inactive; negative
same,mutagenic call,[4],inactive; negative
Cc1cc(C)cc(NO)c1,mutagenic call,"Test System: AMES SALMONELLA TYPHIMURIUM, Strain/Indicator: TA100, Metabolic Activation: RAT, LIVER, S-9, PCB, Method: PREINCUBATION",active; positive
COC(=O)C1(C(N)=O)OC1(C)C(O)C(C)C (stereo unspecified),mutagenic call,"Test System: AMES SALMONELLA TYPHIMURIUM, Strain/Indicator: TA98, Metabolic Activation: NONE, Method: DISK ASSAY",inactive; negative
same,mutagenic call,[5],inactive; negative
same,mutagenic call,"Test System: AMES SALMONELLA TYPHIMURIUM, Strain/Indicator: TA98, Metabolic Activation: RAT, LIVER, S-9, AROCLOR 1254, Method: DISK ASSAY",inactive; negative
same,mutagenic call,"Test System: AMES SALMONELLA TYPHIMURIUM, Strain/Indicator: TA98, Metabolic Activation: RAT, LIVER, S-9, AROCLOR 1254, Method: STANDARD PLATE",active; positive
same,mutagenic call,[6],inactive; negative
same,mutagenic call,"Test System: AMES SALMONELLA TYPHIMURIUM, Strain/Indicator: TA100, Metabolic Activation: RAT, LIVER, S-9, AROCLOR 1254, Method: STANDARD PLATE",inactive; negative
